Measured values reported in ChEMBL document CHEMBL3351661, “Structure-activity relationship studies of antiplasmodial aminomethylthiazoles” (Bioorg Med Chem Lett, 2014).
≈ marks a conversion by molar mass, not a printed value.

What was measured:
[1] = Aqueous kinetic solubility at pH 7.4 by turbidimetric assay; format: physicochemical; details: read-out: Kinetic_solubility
Plasmodium falciparum = assay: microbe, parasite or virus in culture; details: NF54
Description: Antiplasmodial activity against chloroquine-sensitive Plasmodium falciparum NF54 asexual erythrocyte stages by parasite lactate dehydrogenase assay

SMILES | solubility kinetic [1] [µg/mL] | IC50 (Plasmodium falciparum) [µM]
CC(C)(C)c1cc(C(=O)Nc2ncc(CN)s2)n(Cc2ccccc2)n1 | 80 (≈ 217 µM) | 9.09
CC(C)(C)c1cc(C(=O)Nc2ccc(CN)c3ccccc23)n(Cc2ccccc2)n1 |  | 7.59
CC(C)(C)c1cc(C(=O)Nc2nc(CN)cs2)n(Cc2ccc(Cl)cc2)n1 | > 200 | 12.1
CC(C)(C)c1cc(C(=O)Nc2nc(CN)cs2)n(Cc2ccccc2Cl)n1 | 80 (≈ 198 µM) | 1.84
CC(C)(C)c1cc(C(=O)Nc2nc(CN)cs2)n(Cc2ccc(F)cc2F)n1 |  | 4.7
CC(C)(C)c1ccc(Cn2nc(C(C)(C)C)cc2C(=O)Nc2nc(CN)cs2)cc1 | 10 (≈ 23.5 µM) | 2.58
CC(C)(C)c1cc(C(=O)Nc2nc(CN)cs2)n(-c2ccccc2)n1 | 160 (≈ 450 µM) | 67.5
NCc1csc(NC(=O)c2ccnn2Cc2ccccc2)n1 | > 200 | 43.7
Cc1ccc(-c2cc(C(=O)Nc3nc(CN)cs3)n(Cc3ccccc3)n2)cc1 | 40 (≈ 99.1 µM) | 2.03
NCc1csc(NC(=O)c2cccs2)n1 | 80 (≈ 334 µM) | 91.7
N#Cc1ccc(C(=O)Nc2nc(CN)cs2)cc1 | 20 (≈ 77.4 µM) | 146
NCc1csc(NC(=O)c2ccc(C(F)(F)F)cc2)n1 | 40 (≈ 133 µM) | 40.2
NCc1csc(NC(=O)c2ccc(OC(F)(F)F)cc2)n1 | 40 (≈ 126 µM) | 43.9
C[C@H]1[C@H](OC(=O)CCC(=O)O)O[C@@H]2O[C@@]3(C)CC[C@H]4[C@H](C)CC[C@@H]1[C@@]24OO3 [ARTESUNATE] |  | 0.0052

Second part, the molecule after the results:

solubility kinetic [1] [µg/mL] | IC50 (Plasmodium falciparum) [µM] | SMILES
> 200 | 0.0203 | CC(C)(C)c1cc(C(=O)Nc2nc(CN)cs2)n(Cc2ccccc2)n1
40 (≈ 110 µM) | 0.125 | CC(C)(C)c1cc(C(=O)Nc2cccc(CN)n2)n(Cc2ccccc2)n1
> 200 | 12.8 | CC(C)(C)c1cc(C(=O)Nc2nc(CN)cs2)n(Cc2ccc(Br)cc2)n1
160 (≈ 489 µM) | 19.8 | Cc1cc(C(=O)Nc2nc(CN)cs2)n(Cc2ccccc2)n1
80 (≈ 333 µM) | 149 | NCc1csc(NC(=O)c2cscn2)n1
80 (≈ 318 µM) | 123 | NCc1csc(NC(=O)c2ccc(F)cc2)n1
> 200 | 173 | NCc1csc(NC(=O)c2cnccn2)n1
